Assays:
[1] = test system: Heidenhain pouch; assay: Heidenhain pouch test (gastric motility enhancing activity); type: in vivo, Male Beagle dogs; conditions: Beagle dogs; for period of activity: Heidenhain pouch
[2] = test system: dog; assay: Anti-emetic activity in the dog (apomorphine-induced vomiting); type: in vivo; conditions: for ED50: Canis lupus familiaris, sc, 30 minutes prior to apomorphine HCl 0.1 mg/kg subcutaneously, vomiting response
Method: Compounds were administered subcutaneously 30 minutes prior to administration of a standard dose of apomorphine HCl (0.1 mg/kg subcutaneously) and the vomiting response compared to that obtained when the same animals were dosed with apomorphine HC1 and vehicle only.

[3] = test system: Dopamine receptor; assay: Inhibition of apomorphine induced climbing in the mouse (central dopamine receptor blocking activity); type: in vivo; conditions: apomorphine 1 mg/kg s.c.
[4] = test system: rats; assay: Increase in intragastric pressure (gastric motility enhancing activity); type: in vivo; conditions: 0.5 mg/kg s.c.; conscious restrained rats; average height of pressure waves, 40 minutes post dose vs pre-dose, Student's t test
Method: Intragastric pressure changes were recorded from previously starved conscious but restrained rats using a saline filled catheter inserted into the lumen of the stomach via a permanent gastric fistula. The catheter was connected to a physiological pressure transducer and pressure changes recorded on a hot wire pen recorder. In each animal a pre-dose period of 40 minutes was allowed to obtain a measure of spontaneous activity. An index of activity was obtained by measuring the average height of pressure waves during 10 minute periods. Values for 4 such periods were obtained during assessment of spontaneous activity and for 40 minute period after administration of compound. Student's "t" test was applied to the difference in average values obtained for spontaneous and post compound activity.

Structure (SMILES)	motility of the pouch (activity) ([1]; dose of 0.5 mg/kg s.c.)	ED50 [2] [mg/kg]	inhibition of apomorphine induced climbing ([3]; dose of 10 mg/kg s.c.)	index of activity post administration [4]	period of activity [1]	also measured
CN(C)c1ccc(S(=O)(=O)N(C)C)cc1C(=O)N[C@@H]1C[C@H]2CC[C@@H](C1)N2Cc1ccccc1 [Example 2, 2-Dimethylamino-5-dimethylaminosulphonyl-ls(3'6-(8'-benzyl-8'-azabicyclo{3.2.1]octyl)]-benzamide]	active	0.1	inactive	–	–	–
CNc1ccc(S(=O)(=O)N(C)C)cc1C(=O)N[C@@H]1C[C@H]2CC[C@@H](C1)N2Cc1ccccc1 [Example 3, 5-Dimethylaminosulphonyl-2-methylamino-N(3'β(8'-benzyl-8'-azabicyclo{3.2.1}octyl)]benzamide]	–	–	–	significantly increased	greater than 1 hour	motility of the pouch (activity) ([1]; dose of 0.1 mg/kg s.c.): active; inhibition of apomorphine induced climbing ([3]; dose of 25 mg/kg s.c.): inactive
CCOC(=O)N(C)c1ccc(S(=O)(=O)N(C)C)cc1C(=O)N[C@@H]1C[C@H]2CC[C@@H](C1)N2Cc1ccccc1 [Example 4, 5-Dimethylaminosulphonyl-2-(N-methyl-N-ethoxycarbonyl)amino-N [3'8-(8'-benzyl-8'-azabicyclo{3.2.1]octyl)] benzamide]	–	–	inactive	–	–	–
CCNc1ccc(S(=O)(=O)N(C)C)cc1C(=O)N[C@@H]1C[C@H]2CC[C@@H](C1)N2Cc1ccccc1 [Example 5, 5-Dimethylaminosulphonyl-2-ethylamino-N[3 ε'-(8' -benzyl-8' -azabicyclo'{3.2.1)octyl)]-benzamide]	–	–	inactive	significantly increased	–	–
CN(C)S(=O)(=O)c1ccc(NC2CC2)c(C(=O)N[C@@H]2C[C@H]3CC[C@@H](C2)N3Cc2ccccc2)c1 [Example 6]	active	0.5	inactive	significantly increased	greater than 1 hour	–
CNc1cccc(OC)c1C(=O)N[C@@H]1C[C@H]2CC[C@@H](C1)N2Cc1ccccc1 [Example 12, 2-Methylamino-6-methoxy-N-[3β-(8-benzyl-8-azabicyclo (3,2,1)octyl)]benzamide]	–	–	–	–	–	anti-emetic activity ([2]; dose of 0.01 mg/kg s.c., apomorphine HCl 0.1 mg/kg subcutaneously): active

Reference: EP0102195A2, “Substituted aza bicycloalkyl derivatives with dopamine antagonist activity” (BEECHAM GROUP PLC, priority 1982, dated 1984)
